One data set can be described thus: Log P by HPLC on reversed phase columns, method [a] (EEC directive 79/831 Annex V.A8). It counts as physicochemical. Particulars: reversed phase HPLC column; log P determined according to method [a] (HPLC on reversed phase columns); read-out: logP. The method in brief:
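Reversed-phase HPLC with LC-UV detection per EEC directive 79/831 Annex V.A8, acidic eluent of 0.1% formic acid in water and acetonitrile, linear gradient 10% to 95% acetonitrile. Log P derived from retention times, calibrated against straight-chain alkan-2-ones (C3–C16) by linear interpolation.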
For `Fc1ccc(C2(Oc3ncc(-c4nnc(C(F)F)o4)cn3)CC2)cc1` [I.149, 5-[5-(difluoromethyl)-1,3,4-oxadiazol-2-yl]-2-{[1-(4-fluorophenyl)cyclopropyl]oxy}pyrimidine], the chromatographic logP amounted to 3.19.
`Cc1ccc(C2(Nc3ncc(-c4nnc(C(F)F)o4)cn3)COC2)cc1` [I.158, 5-[5-(difluoromethyl)-1,3,4-oxadiazol-2-yl]-N-[3-(4-methylphenyl)oxetan-3-yl]pyrimidin-2-amine]: the chromatographic logP is 2.57.
The same measure, in the same setting: the figure for `Fc1ccccc1C1(Nc2ncc(-c3nnc(C(F)F)s3)cn2)CC1` [I.162, 5-[5-(difluoromethyl)-1,3,4-thiadiazol-2-yl]-N-[1-(2-fluorophenyl)cyclopropyl]pyrimidin-2-amine] is 3.22.
Take `FC(F)c1nnc(-c2cnc(NC3(c4ccccc4Cl)CC3)nc2)o1` [I.163, N-[1-(2-chlorophenyl)cyclopropyl]-5-[5-(difluoromethyl)-1,3,4-oxadiazol-2-yl]pyrimidin-2-amine]: the chromatographic logP worked out at 3.34.
Consider `Fc1cccc(F)c1C1(Nc2ncc(-c3nnc(C(F)F)o3)cn2)CC1` [I.164, 5-[5-(difluoromethyl)-1,3,4-oxadiazol-2-yl]-N-[1-(2,6-difluorophenyl)cyclopropyl]pyrimidin-2-amine], for which the chromatographic logP turned out to be 2.95.
Consider `Fc1cccc(F)c1C1(Oc2ncc(-c3nnc(C(F)F)o3)cn2)CC1` [I.167, 5-[5-(difluoromethyl)-1,3,4-oxadiazol-2-yl]-2-{[1-(2,6-difluorophenyl)cyclopropyl]oxy}pyrimidine], for which the chromatographic logP was 3.25.
With `CC(C)(Nc1ncc(-c2nnc(C(F)F)o2)cn1)c1c(F)cccc1F` [I.168, 5-[5-(difluoromethyl)-1,3,4-oxadiazol-2-yl]-N-[2-(2,6-difluorophenyl)propan-2-yl]pyrimidin-2-amine], the chromatographic logP came to 3.34.

The data set is the same for the next values; noted with them: reversed phase HPLC column; method [a], HPLC on reversed phase columns; read-out: logP.
Regarding `FC(F)c1nnc(-c2cnc(NC3(c4ccccc4Cl)CCC3)nc2)o1` [I.174, N-[1-(2-chlorophenyl)cyclobutyl]-5-[5-(difluoromethyl)-1,3,4-oxadiazol-2-yl]pyrimidin-2-amine], the chromatographic logP came to 3.81.
Take `Fc1ccccc1C1(Nc2ncc(-c3nnc(C(F)(F)F)s3)cn2)CC1` [I.178, N-[1-(2-fluorophenyl)cyclopropyl]-5-[5-(trifluoromethyl)-1,3,4-thiadiazol-2-yl]pyrimidin-2-amine]: the chromatographic logP came out at 3.79.
In the case of `Fc1ccccc1C1(Nc2ncc(-c3nnc(C(F)(F)Cl)o3)cn2)CC1` [I.179, 5-{5-[chloro(difluoro)methyl]-1,3,4-oxadiazol-2-yl}-N-[1-(2-fluorophenyl)cyclopropyl]pyrimidin-2-amine], the chromatographic logP was 3.76.
Turning to `O=C(c1ccc(F)cc1F)N(C(=O)c1ccc(F)cc1F)c1ncc(-c2nnc(C(F)F)o2)cn1` [I.185, N-(2,4-difluorobenzoyl)-N-{5-[5-(difluoromethyl)-1,3,4-oxadiazol-2-yl]pyrimidin-2-yl}-2,4-difluorobenzamide], the chromatographic logP was 3.59.
Take `CC(C)C1(Nc2ncc(-c3nnc(C(F)F)o3)cn2)CC1` [I.187, 5-[5-(difluoromethyl)-1,3,4-oxadiazol-2-yl]-N-(1-isopropylcyclopropyl)pyrimidin-2-amine]: the chromatographic logP worked out at 2.65.
Turning to `FC(F)c1nnc(-c2cnc(NC3(c4ccccc4)CC3)nc2)o1` [I.195, 5-[5-(difluoromethyl)-1,3,4-oxadiazol-2-yl]-N-(1-phenylcyclopropyl)pyrimidin-2-amine], the chromatographic logP came to 2.62.
Turning to `CC(C)(Nc1ncc(-c2nnc(C(F)F)o2)cn1)c1ccccc1` [I.197, 5-[5-(difluoromethyl)-1,3,4-oxadiazol-2-yl]-N-(2-phenylpropan-2-yl)pyrimidin-2-amine], the chromatographic logP came out at 3.08.
The same measure, in the same setting: then `CC(C)(Nc1ncc(-c2nnc(C(F)F)o2)cn1)c1ccccn1` [I.198, 5-[5-(difluoromethyl)-1,3,4-oxadiazol-2-yl]-N-[2-(pyridin-2-yl)propan-2-yl]pyrimidin-2-amine], with 1.11; and `CC(C)(Nc1ncc(-c2nnc(C(F)F)o2)cn1)c1cccnc1` [I.199, 5-[5-(difluoromethyl)-1,3,4-oxadiazol-2-yl]-N-[2-(pyridin-3-yl)propan-2-yl]pyrimidin-2-amine], with 0.91; and `Fc1ccc(CCNc2ncc(-c3nnc(C(F)F)o3)cn2)cc1` [I.200, 5-[5-(difluoromethyl)-1,3,4-oxadiazol-2-yl]-N-[2-(4-fluorophenyl)ethyl]pyrimidin-2-amine], with 2.84.
Consider `FC(F)c1nnc(-c2cnc(NC3(Cc4ccccc4)CC3)nc2)o1` [I.201, N-(1-benzylcyclopropyl)-5-[5-(difluoromethyl)-1,3,4-oxadiazol-2-yl]pyrimidin-2-amine], for which the chromatographic logP stood at 2.99.
With `Cc1cccc(C2(Nc3ncc(-c4nnc(C(F)F)o4)cn3)CC2)c1` [I.202, 5-[5-(difluoromethyl)-1,3,4-oxadiazol-2-yl]-N-[1-(3-methylphenyl)cyclopropyl]pyrimidin-2-amine], the chromatographic logP came out at 2.95.
Regarding `Cc1ccnc(C2(Nc3ncc(-c4nnc(C(F)F)o4)cn3)CC2)c1` [I.203, 5-[5-(difluoromethyl)-1,3,4-oxadiazol-2-yl]-N-[1-(4-methylpyridin-2-yl)cyclopropyl]pyrimidin-2-amine], the chromatographic logP was 0.93.
The same measure, in the same setting: then `Cc1ccc(C(C)(C)Nc2ncc(-c3nnc(C(F)F)o3)cn2)cc1` [I.204, 5-[5-(difluoromethyl)-1,3,4-oxadiazol-2-yl]-N-[2-(4-methylphenyl)propan-2-yl]pyrimidin-2-amine], with 3.46.
`Cc1ccccc1C(C)(C)Nc1ncc(-c2nnc(C(F)F)o2)cn1` [I.205, 5-[5-(difluoromethyl)-1,3,4-oxadiazol-2-yl]-N-[2-(2-methylphenyl)propan-2-yl]pyrimidin-2-amine]: the chromatographic logP was 3.28.
The same measure, in the same setting: the figure for `FC(F)c1nnc(-c2cnc(NC3(c4ccco4)CCCC3)nc2)o1` [I.208, 5-[5-(difluoromethyl)-1,3,4-oxadiazol-2-yl]-N-[1-(2-furyl)cyclopentyl]pyrimidin-2-amine] is 3.18; for `CC(C)(Nc1ncc(-c2nnc(C(F)F)o2)cn1)c1ccccc1F` [I.212, 5-[5-(difluoromethyl)-1,3,4-oxadiazol-2-yl]-N-[2-(2-fluorophenyl)propan-2-yl]pyrimidin-2-amine] it is 3.19; for `Cc1cccc(C)c1C1(Nc2ncc(-c3nnc(C(F)F)o3)cn2)CC1` [I.216, 5-[5-(difluoromethyl)-1,3,4-oxadiazol-2-yl]-N-[1-(2,6-dimethylphenyl)cyclopropyl]pyrimidin-2-amine] it is 3.8.
Turning to `FC(F)c1nnc(-c2cnc(NC3(c4cccnc4)CCCC3)nc2)o1` [I.218, 5-[5-(difluoromethyl)-1,3,4-oxadiazol-2-yl]-N-[1-(pyridin-3-yl)cyclopentyl]pyrimidin-2-amine], the chromatographic logP was 1.29.
Consider `FC(F)c1nnc(-c2cnc(NC3(c4ccccn4)CCCC3)nc2)o1` [I.219, 5-[5-(difluoromethyl)-1,3,4-oxadiazol-2-yl]-N-[1-(pyridin-2-yl)cyclopentyl]pyrimidin-2-amine], for which the chromatographic logP was 1.38.
On to `Fc1ccc(C2(Nc3ncc(-c4nnc(C(F)F)o4)cn3)CCC2)cc1` [I.220, 5-[5-(difluoromethyl)-1,3,4-oxadiazol-2-yl]-N-[1-(4-fluorophenyl)cyclobutyl]pyrimidin-2-amine], for which the chromatographic logP came to 3.33.
Consider `CN(c1ncc(-c2nnc(C(F)F)o2)cn1)C1(c2ccccc2F)CC1` [I.221, 5-[5-(difluoromethyl)-1,3,4-oxadiazol-2-yl]-N-[1-(2-fluorophenyl)cyclopropyl]-N-methylpyrimidin-2-amine], for which the chromatographic logP is 3.98.
For the molecule `COC(=O)C(Nc1ncc(-c2nnc(C(F)F)o2)cn1)c1ccccn1` (stereo not shown) [I.222, methyl ({5-[5-(difluoromethyl)-1,3,4-oxadiazol-2-yl]pyrimidin-2-yl}amino)(pyridin-2-yl)acetate], the chromatographic logP came out at 1.92.
Regarding `CC(C)(Cc1ccc(F)cc1)Nc1ncc(-c2nnc(C(F)F)o2)cn1` [I.223, 5-[5-(difluoromethyl)-1,3,4-oxadiazol-2-yl]-N-[1-(4-fluorophenyl)-2-methylpropan-2-yl]pyrimidin-2-amine], the chromatographic logP is 3.79.
`CC(C)(CNc1ncc(-c2nnc(C(F)F)o2)cn1)c1ccc(F)cc1` [I.224, 5-[5-(difluoromethyl)-1,3,4-oxadiazol-2-yl]-N-[2-(4-fluorophenyl)-2-methylpropyl]pyrimidin-2-amine]: the chromatographic logP was 3.44.
`FC(F)c1nnc(-c2cnc(NC3(c4cccs4)CCCC3)nc2)o1` [I.225, 5-[5-(difluoromethyl)-1,3,4-oxadiazol-2-yl]-N-[1-(2-thienyl)cyclopentyl]pyrimidin-2-amine]: the chromatographic logP is 3.45.
Regarding `FC(F)c1nnc(-c2cnc(NC3(c4ccc(Cl)cc4)CC3)nc2)o1` [I.226, N-[1-(4-chlorophenyl)cyclopropyl]-5-[5-(difluoromethyl)-1,3,4-oxadiazol-2-yl]pyrimidin-2-amine], the chromatographic logP turned out to be 3.16.
The same measure, in the same setting: then `FC(F)c1nnc(-c2cnc(NC3(c4cccc(Cl)c4)CC3)nc2)o1` [I.227, N-[1-(3-chlorophenyl)cyclopropyl]-5-[5-(difluoromethyl)-1,3,4-oxadiazol-2-yl]pyrimidin-2-amine], with 3.11; and `FC(F)c1nnc(-c2cnc(NC3(c4cc(Cl)ccn4)CC3)nc2)o1` [I.228, N-[1-(4-chloropyridin-2-yl)cyclopropyl]-5-[5-(difluoromethyl)-1,3,4-oxadiazol-2-yl]pyrimidin-2-amine], with 2.31; and `Fc1ccc(C2(Nc3ncc(-c4nnc(C(F)F)o4)cn3)CC2)cc1F` [I.229, 5-[5-(difluoromethyl)-1,3,4-oxadiazol-2-yl]-N-[1-(3,4-difluorophenyl)cyclopropyl]pyrimidin-2-amine], with 2.84.

The values are drawn from patent US20220144815A1, “1,3,4-OXADIAZOLES AND THEIR DERIVATIVES AS NEW ANTIFUNGAL AGENTS” (Bayer Aktiengesellschaft, priority 2018, published 2022).
